# Results as given in ChEMBL document CHEMBL1201862, “PubChem BioAssay data set” (2004).
#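 How tested: cells in 96-well plates exposed to compound for 48 hours at five concentrations. At the GI50, growth is halved.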 Active and inactive are the calls of the source. Rule as the data show it: active = GI50 up to about 1.1 µM and inactive = higher.
# Assays:
# Assay in all cases: NCI-60 cell line screen, 48 h
# 786-0 = tested on: 786-0
# A498 = tested on: A498
# A549 = tested on: A549
# ACHN = tested on: ACHN
# CAKI-1 = tested on: CAKI-1
# CCRF-CEM = tested on: CCRF-CEM
# COLO 205 = tested on: COLO 205
# DU-145 = tested on: DU-145
# EKVX = tested on: EKVX
# HCC 2998 = tested on: HCC 2998
# HCT-116 = tested on: HCT-116
# HCT-15 = tested on: HCT-15
# HL-60 = tested on: HL-60
# HOP-62 = tested on: HOP-62
# HOP-92 = tested on: HOP-92
# HT-29 = tested on: HT-29
# Hs-578T = tested on: Hs-578T
# IGROV-1 = tested on: IGROV-1
# K562 = tested on: K562
# KM12 = tested on: KM12
# LOX IMVI = tested on: LOX IMVI
# MCF7 = tested on: MCF7
# MDA-MB-231 = tested on: MDA-MB-231
# MDA-MB-435 = tested on: MDA-MB-435
# MDA-N = tested on: MDA-N
# MOLT-4 = tested on: MOLT-4
# Malme-3M = tested on: Malme-3M
# NCI-H226 = tested on: NCI-H226
# NCI-H23 = tested on: NCI-H23
# NCI-H460 = tested on: NCI-H460
# NCI-H522 = tested on: NCI-H522
# NCI/ADR-RES = tested on: NCI/ADR-RES
# OVCAR-3 = tested on: OVCAR-3
# OVCAR-4 = tested on: OVCAR-4
# OVCAR-5 = tested on: OVCAR-5
# OVCAR-8 = tested on: OVCAR-8
# PC-3 = tested on: PC-3
# RPMI-8226 = tested on: RPMI-8226
# RXF 393 = tested on: RXF 393
# SF-268 = tested on: SF-268
# SF-295 = tested on: SF-295
# SF-539 = tested on: SF-539
# SK-MEL-28 = tested on: SK-MEL-28
# SK-MEL-5 = tested on: SK-MEL-5
# SK-OV-3 = tested on: SK-OV-3
# SN12C = tested on: SN12C
# SNB-19 = tested on: SNB-19
# SNB-75 = tested on: SNB-75
# SR = tested on: SR
# SW-620 = tested on: SW-620
# T47D = tested on: T47D
# TK-10 = tested on: TK-10
# U-251 = tested on: U-251
# UACC-257 = tested on: UACC-257
# UACC-62 = tested on: UACC-62
# M14 = tested on: M14
# SK-MEL-2 = tested on: SK-MEL-2
# UO-31 = tested on: UO-31
smiles,measurement,setting,value
CCCCCCCCCCCCCCCCCCOCC(O)COP(=O)(O)OCC1OC(n2ccc(N)nc2=O)C(O)C1O (stereo unspecified),GI50,786-0,10.9 µM (inactive)
same,GI50,A498,11 µM (inactive)
same,GI50,A549,3.85 µM (inactive)
same,GI50,ACHN,11.3 µM (inactive)
same,GI50,CAKI-1,23.1 µM (inactive)
same,GI50,CCRF-CEM,0.56 µM (active)
same,GI50,COLO 205,10.9 µM (inactive)
same,GI50,DU-145,98.2 µM (inactive)
same,GI50,EKVX,61.8 µM (inactive)
same,GI50,HCC 2998,22 µM (inactive)
same,GI50,HCT-116,10.9 µM (inactive)
same,GI50,HCT-15,15.5 µM
same,GI50,HL-60,9.84 µM (inactive)
same,GI50,HOP-62,11.6 µM (inactive)
same,GI50,HOP-92,19.9 µM (inactive)
same,GI50,HT-29,22.8 µM (inactive)
same,GI50,Hs-578T,36.4 µM (inactive)
same,GI50,IGROV-1,9.62 µM (inactive)
same,GI50,K562,28.2 µM (inactive)
same,GI50,KM12,17.1 µM (inactive)
same,GI50,LOX IMVI,14.1 µM (inactive)
same,GI50,MCF7,22 µM (inactive)
same,GI50,MDA-MB-231,25.8 µM (inactive)
same,GI50,MDA-MB-435,45.4 µM (inactive)
same,GI50,MDA-N,93.8 µM (inactive)
same,GI50,MOLT-4,0.908 µM (active)
same,GI50,Malme-3M,7.05 µM (inactive)
same,GI50,NCI-H226,> 100 µM (inactive)
same,GI50,NCI-H23,26.1 µM (inactive)
same,GI50,NCI-H460,3.69 µM (inactive)
same,GI50,NCI-H522,13.4 µM (inactive)
same,GI50,NCI/ADR-RES,19.1 µM (inactive)
same,GI50,OVCAR-3,43.5 µM (inactive)
same,GI50,OVCAR-4,28.3 µM (inactive)
same,GI50,OVCAR-5,33.6 µM (inactive)
same,GI50,OVCAR-8,6.31 µM (inactive)
same,GI50,PC-3,6.01 µM (inactive)
same,GI50,RPMI-8226,24.9 µM (inactive)
same,GI50,RXF 393,12.9 µM (inactive)
same,GI50,SF-268,16.9 µM (inactive)
same,GI50,SF-295,22.7 µM (inactive)
same,GI50,SF-539,16.6 µM (inactive)
same,GI50,SK-MEL-28,57.5 µM (inactive)
same,GI50,SK-MEL-5,29.9 µM (inactive)
same,GI50,SK-OV-3,66.8 µM (inactive)
same,GI50,SN12C,36.6 µM (inactive)
same,GI50,SNB-19,11.6 µM (inactive)
same,GI50,SNB-75,13 µM (inactive)
same,GI50,SR,17 µM (inactive)
same,GI50,SW-620,35.6 µM (inactive)
same,GI50,T47D,62.5 µM (inactive)
same,GI50,TK-10,14.2 µM (inactive)
same,GI50,U-251,11.9 µM (inactive)
same,GI50,UACC-257,24.8 µM (inactive)
same,GI50,UACC-62,23.9 µM (inactive)
O=C1O/C(=C(/Br)c2ccc(Cl)c(Cl)c2)c2ccccc21,GI50,786-0,> 10 µM (inactive)
same,GI50,A549,> 10 µM (inactive)
same,GI50,ACHN,> 10 µM (inactive)
same,GI50,CAKI-1,> 10 µM (inactive)
same,GI50,CCRF-CEM,> 10 µM (inactive)
same,GI50,COLO 205,> 10 µM (inactive)
same,GI50,DU-145,> 10 µM (inactive)
same,GI50,EKVX,> 10 µM (inactive)
same,GI50,HCC 2998,> 10 µM (inactive)
same,GI50,HCT-116,> 10 µM (inactive)
same,GI50,HCT-15,> 10 µM
same,GI50,HL-60,> 10 µM (inactive)
same,GI50,HOP-62,> 10 µM (inactive)
same,GI50,HOP-92,> 10 µM (inactive)
same,GI50,HT-29,> 10 µM (inactive)
same,GI50,Hs-578T,> 10 µM (inactive)
same,GI50,IGROV-1,> 10 µM (inactive)
same,GI50,K562,> 10 µM (inactive)
same,GI50,KM12,> 10 µM (inactive)
same,GI50,LOX IMVI,> 10 µM (inactive)
same,GI50,M14,> 10 µM (inactive)
same,GI50,MCF7,7.67 µM (inactive)
same,GI50,MDA-MB-231,> 10 µM (inactive)
same,GI50,MDA-MB-435,> 10 µM (inactive)
same,GI50,MDA-N,> 10 µM (inactive)
same,GI50,MOLT-4,> 10 µM (inactive)
same,GI50,NCI-H226,> 10 µM (inactive)
same,GI50,NCI-H23,> 10 µM (inactive)
same,GI50,NCI-H460,> 10 µM (inactive)
same,GI50,NCI-H522,> 10 µM (inactive)
same,GI50,NCI/ADR-RES,> 10 µM (inactive)
same,GI50,OVCAR-3,> 10 µM (inactive)
same,GI50,OVCAR-4,> 10 µM (inactive)
same,GI50,OVCAR-5,> 10 µM (inactive)
same,GI50,OVCAR-8,> 10 µM (inactive)
same,GI50,PC-3,> 10 µM (inactive)
same,GI50,RPMI-8226,> 10 µM (inactive)
same,GI50,RXF 393,> 10 µM (inactive)
same,GI50,SF-268,> 10 µM (inactive)
same,GI50,SF-295,> 10 µM (inactive)
same,GI50,SF-539,> 10 µM (inactive)
same,GI50,SK-MEL-28,> 10 µM (inactive)
same,GI50,SK-MEL-2,> 10 µM (inactive)
same,GI50,SK-MEL-5,> 10 µM (inactive)
same,GI50,SK-OV-3,> 10 µM (inactive)
same,GI50,SN12C,> 10 µM (inactive)
same,GI50,SNB-19,> 10 µM (inactive)
same,GI50,SNB-75,> 10 µM (inactive)
same,GI50,SR,> 10 µM (inactive)
same,GI50,SW-620,> 10 µM (inactive)
same,GI50,T47D,> 10 µM (inactive)
same,GI50,TK-10,> 10 µM (inactive)
same,GI50,U-251,> 10 µM (inactive)
same,GI50,UACC-257,> 10 µM (inactive)
same,GI50,UACC-62,> 10 µM (inactive)
same,GI50,UO-31,> 10 µM (inactive)
